This is an account of results in patent EP2818472A1, “Imidazo[4,5-c]pyridine and pyrrolo[3,2-c]pyridine compounds as G-protein-coupled receptor kinase 5 (GRK5) modulators” (Max-Planck-Gesellschaft zur Förderung der Wissenschaften …, priority 2013, dated 2014).

For the assay, the system named is beta-TC6 cells. The experiment in a line: Insulin HTRF assay (relative activity Ar) in beta-TC6 cells. To be noted: Mus musculus, Beta-TC6, 4 h, insulin HTRF, supernatant of beta-TC6 cells, incubation with test compound at 37°C for 2, 3, 4h; read-out: Ar (relative activity). Type of assay: cell-based, mouse. The method in brief: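 beta-TC6 cells (15k/well, seeded 24 or 48 h) washed, then exposed to compound in induction buffer (0.5% DMSO final) for 2, 3 or 4 h at 37°C.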
On the technique in general: TR-FRET usually uses a lanthanide donor and a delayed reading to cut background.
Consider `CN(C)C(=O)c1ccc(-c2cc3cnc(Nc4cccc(NS(C)(=O)=O)c4)cc3n2C)cc1` [Compound 55, 4-[6-[3-(methanesulfonamido)anilino]-1-methyl-pyrrolo[3,2-c]pyridin-2-yl]-N,N-dimethyl-benzamide], for which the Emax was 50 to 100%. Turning to `COc1ccc(Nc2nccc3[nH]c(-c4cccc(F)c4)nc23)cc1OC` [Compound 404, N-(3,4-dimethoxyphenyl)-2-(3-fluorophenyl)-1H-imidazo[4,5-c]pyridin-4-amine], the Emax was more than 100%. The value for `COc1ccc(Nc2nccc3[nH]c(-c4cccc(OC)c4F)nc23)cn1` [Compound 470, 2-(2-fluoro-3-methoxy-phenyl)-N-(6-methoxy-3-pyridyl)-1H-imidazo[4,5-c]pyridin-4-amine] was 30 to 50%; that for `CNc1nc2cnc(Nc3cccc(N(C)C)c3)cc2n1-c1ccccc1` [Compound 508, N6-[3-(dimethylamino)phenyl]-N2-methyl-1-phenyl-imidazo[4,5-c]pyridine-2,6-diamine] was 50 to 100%. For `CNc1nc2cnc(Nc3cc(OC)c(OC)c(OC)c3)cc2n1C` [Compound 609, N2,1-dimethyl-N6-(3,4,5-trimethoxyphenyl)imidazo[4,5-c]pyridine-2,6-diamine], the Emax fell in the range of 50 to 100%. The value for `CNc1nc2cnc(Nc3ccc4c(c3)OCCO4)cc2n1-c1cccc(C(F)(F)F)c1` [Compound 544, N6-(2,3-dihydro-1,4-benzodioxin-6-yl)-N2-methyl-1-[3-(trifluoromethyl)phenyl]imidazo[4,5-c]pyridine-2,6-diamine] was 50 to 100%; that for `CNc1nc2cnc(-c3cccc4ccccc34)cc2n1Cc1ccc(OC)c(OC)c1` [Compound 670, 1-[(3,4-dimethoxyphenyl)methyl]-N-methyl-6-(1-naphthyl)imidazo[4,5-c]pyridin-2-amine] was 30 to 50%; that for `COc1cc(OC)cc(-c2cc3c(Nc4ccc(S(C)(=O)=O)cc4)nccc3[nH]2)c1` [Compound 293, 2-(3,5-dimethoxyphenyl)-N-(4-methylsulfonylphenyl)-1H-pyrrolo[3,2-c]pyridin-4-amine] was 50 to 100%. Take `CNc1nc2cnc(Nc3ccc(OC)cc3OC)cc2n1CC1CC1` [Compound 569, 1-(cyclopropylmethyl)-N6-(2,4-dimethoxyphenyl)-N2-methyl-imidazo[4,5-c]pyridine-2,6-diamine]: the Emax fell in the range of 30 to 50%.

Turning to `CNc1nc2cnc(Nc3cc(OC)c(OC)c(OC)c3)cc2n1Cc1ccc(OC)c(OC)c1` [Compound 660, 1-[(3,4-dimethoxyphenyl)methyl]-N2-methyl-N6-(3,4,5-trimethoxyphenyl)imidazo[4,5-c]pyridine-2,6-diamine], the Emax lay within 50 to 100%. `CN(C)C(=O)c1ccc(Nc2cc3[nH]c(-c4cccc(F)c4)cc3cn2)cc1` [Compound 14, 4-[[2-(3-fluorophenyl)-1H-pyrrolo[3,2-c]pyridin-6-yl]amino]-N,N-dimethyl-benzamide]: the Emax fell in the range of 30 to 50%.

With `Cc1cccc(Nc2cc3[nH]c(-c4cn[nH]c4)cc3cn2)c1` [Compound 113, N-(m-tolyl)-2-(1H-pyrazol-4-yl)-1H-pyrrolo[3,2-c]pyridin-6-amine], the Emax is 50 to 100%. The value for `Clc1ccccc1Nc1cc2[nH]c(-c3cccnc3)cc2cn1` [Compound 78, N-(2-chlorophenyl)-2-(3-pyridyl)-1H-pyrrolo[3,2-c]pyridin-6-amine] was 50 to 100%; that for `COc1ccc(Nc2nccc3[nH]c(-c4cccc(OC)c4)nc23)cc1` [Compound 372, 2-(3-methoxyphenyl)-N-(4-methoxyphenyl)-1H-imidazo[4,5-c]pyridin-4-amine] was 50 to 100%.

Regarding `COc1cccc(-c2cc3c(Nc4ccc(C(=O)N(C)C)cc4)nccc3[nH]2)c1` [Compound 313, 4-[[2-(3-methoxyphenyl)-1H-pyrrolo[3,2-c]pyridin-4-yl]amino]-N,N-dimethyl-benzamide], the Emax is more than 100%.

Regarding `CC(=O)Nc1ccc(Nc2cc3c(cn2)ncn3Cc2ccccc2)cc1` [Compound 694, N-[4-[(1-benzylimidazo[4,5-c]pyridin-6-yl)amino]phenyl]acetamide], the Emax is 50 to 100%. Turning to `CNc1nc2cnc(Nc3cc(OC)c(OC)c(OC)c3)cc2n1Cc1ccccc1` [Compound 526, 1-benzyl-N2-methyl-N6-(3,4,5-trimethoxyphenyl)imidazo[4,5-c]pyridine-2,6-diamine], the Emax was 50 to 100%. For `COc1cccc(Nc2cc3c(cn2)cc(-c2ccc(C(=O)N(C)C)cc2)n3C)c1` [Compound 45, 4-[6-(3-methoxyanilino)-1-methyl-pyrrolo[3,2-c]pyridin-2-yl]-N,N-dimethyl-benzamide] the value was 30 to 50%; for `COc1ccc(Nc2nccc3[nH]c(-c4cccnc4)cc23)cc1O` [Compound 236, 2-methoxy-5-[[2-(3-pyridyl)-1H-pyrrolo[3,2-c]pyridin-4-yl]amino]phenol], 50 to 100%. Consider `CNc1nc2cnc(-c3ccc4c(c3)OCO4)cc2n1Cc1ccccc1` [Compound 791, 6-(1,3-benzodioxol-5-yl)-1-benzyl-N-methyl-imidazo[4,5-c]pyridin-2-amine], for which the Emax fell in the range of 0 to 30%. The value for `Cn1c(-c2ccsc2)cc2c(Nc3ccc4c(c3)OCO4)nccc21` [Compound 283, N-(1,3-benzodioxol-5-yl)-1-methyl-2-(3-thienyl)pyrrolo[3,2-c]pyridin-4-amine] was 30 to 50%; that for `CNc1nc2cnc(Nc3ccc(OC)cc3OC)cc2n1C` [Compound 610, N6-(2,4-dimethoxyphenyl)-N2,1-dimethyl-imidazo[4,5-c]pyridine-2,6-diamine] was 50 to 100%.

`CNc1nc2cnc(-c3cccnc3)cc2n1Cc1cccnc1` [Compound 563, N-methyl-6-(3-pyridyl)-1-(3-pyridylmethyl)imidazo[4,5-c]pyridin-2-amine]: the Emax was 50 to 100%. On to `COc1cc(Nc2nc3cnc(-c4cccnc4)cc3n2C)cc(OC)c1OC` [Compound 589, 1-methyl-6-(3-pyridyl)-N-(3,4,5-trimethoxyphenyl)imidazo[4,5-c]pyridin-2-amine], for which the Emax was in the range of 50 to 100%. For `COc1ccc(-c2nc3c(Nc4ccccc4)nccc3[nH]2)cc1OC` [Compound 342, 2-(3,4-dimethoxyphenyl)-N-phenyl-1H-imidazo[4,5-c]pyridin-4-amine] the value was 50 to 100%; for `CN1CCN(c2ccc(Nc3nccc4c3cc(-c3cccc(F)c3)n4C)cc2)CC1` [Compound 209, 2-(3-fluorophenyl)-1-methyl-N-[4-(4-methylpiperazin-1-yl)phenyl]pyrrolo[3,2-c]pyridin-4-amine], 50 to 100%; for `CNc1nc2cnc(-c3ccccc3Oc3ccccc3)cc2n1Cc1ccccc1` [Compound 529, 1-benzyl-N-methyl-6-(2-phenoxyphenyl)imidazo[4,5-c]pyridin-2-amine], 30 to 50%.

With `COc1cc(-c2cc3c(cn2)ncn3Cc2ccc(OC)c(OC)c2)ccc1O` [Compound 739, 4-[1-[(3,4-dimethoxyphenyl)methyl]imidazo[4,5-c]pyridin-6-yl]-2-methoxy-phenol], the Emax was in the range of 30 to 50%. `CN(C)c1cccc(-c2cc3c(cn2)ncn3-c2cccc(F)c2)c1` [Compound 740, 3-[1-(3-fluorophenyl)imidazo[4,5-c]pyridin-6-yl]-N,N-dimethyl-aniline]: the Emax lay within 50 to 100%.
